PubChem BioAssay AID2060600 (Molecular Pharmacology Branch, DTP, NCI, 2025)
Values belong to the compound of their own block, whether it stands above or below them.

Test system: 996289-038-R-J1-PDC complex spheroid viability
Assay: Anticancer human tumor 996289-038-R-J1-PDC patient-derived colon adenocarcinoma cell line growth inhibition [CLK]
Conditions: for IC50: curve of first compound; for viability, T/C: stronger effect = lower value
Procedure, shortened: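 Multi-cell-type spheroids combined patient-derived tumor cells with HUVEC endothelial cells and human mesenchymal stem cells. Paired agents were dosed in half-log steps down from about clinical Cmax, or from 10 microM where Cmax was unknown.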

[1] = second compound 0.0316 µM, first compound 0.0316 µM
[2] = second compound 0.0316 µM, first compound 0.1 µM
[3] = second compound 0.0316 µM, first compound 0.316 µM
[4] = second compound 0.0316 µM, first compound 1 µM
[5] = second compound 0.0316 µM, first compound 3.16 µM
[6] = second compound 0.0316 µM, first compound 10 µM
[7] = second compound 0.1 µM, first compound 0.0316 µM
[8] = second compound 0.1 µM, first compound 0.1 µM
[9] = second compound 0.1 µM, first compound 0.316 µM
[10] = second compound 0.1 µM, first compound 1 µM
[11] = second compound 0.1 µM, first compound 3.16 µM
[12] = second compound 0.1 µM, first compound 10 µM
[13] = second compound 0.316 µM, first compound 0.0316 µM
[14] = second compound 0.316 µM, first compound 0.1 µM
[15] = second compound 0.316 µM, first compound 0.316 µM
[16] = second compound 0.316 µM, first compound 1 µM
[17] = second compound 0.316 µM, first compound 3.16 µM
[18] = second compound 0.316 µM, first compound 10 µM
[19] = second compound 1 µM, first compound 0.0316 µM
[20] = second compound 1 µM, first compound 0.1 µM
[21] = second compound 1 µM, first compound 0.316 µM
[22] = second compound 1 µM, first compound 1 µM
[23] = second compound 1 µM, first compound 3.16 µM
[24] = second compound 1 µM, first compound 10 µM
[25] = second compound 3.16 µM, first compound 0.0316 µM
[26] = second compound 3.16 µM, first compound 0.1 µM
[27] = second compound 3.16 µM, first compound 0.316 µM
[28] = second compound 3.16 µM, first compound 1 µM
[29] = second compound 3.16 µM, first compound 3.16 µM
[30] = second compound 3.16 µM, first compound 10 µM
[31] = second compound 10 µM, first compound 0.0316 µM
[32] = second compound 10 µM, first compound 0.1 µM
[33] = second compound 10 µM, first compound 0.316 µM
[34] = second compound 10 µM, first compound 1 µM
[35] = second compound 10 µM, first compound 3.16 µM
[36] = second compound 10 µM, first compound 10 µM
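Note: spheroids exposed to the agents for 7 days before readout.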

- IC50 (second compound 0.0316 µM): > 10000 nM
- IC50 (second compound 0.1 µM): > 10000 nM
- IC50 (second compound 0.316 µM): 5720 nM
- IC50 (second compound 1 µM): 2470 nM
- IC50 (second compound 3.16 µM): 1410 nM
- IC50 (second compound 10 µM): 1130 nM
Structure (SMILES): COc1ccc([C@@H](O)c2cc(-c3ncnc4cc(N5CCOCC5)ccc34)c(F)cc2Cl)nn1 + CNC(=O)c1ccc(Nc2nc(OC3CCCC3)c3c(-c4ccc5nc(C)oc5c4)c[nH]c3n2)c(OC)c1
- viability, T/C [1]: 117%
- viability, T/C [2]: 117%
- viability, T/C [3]: 101%
- viability, T/C [4]: 102%
- viability, T/C [5]: 75.4%
- viability, T/C [6]: 54.7%
- viability, T/C [7]: 121%
- viability, T/C [8]: 112%
- viability, T/C [9]: 99.1%
- viability, T/C [10]: 101%
- viability, T/C [11]: 86.8%
- viability, T/C [12]: 52.7%
- viability, T/C [13]: 82.3%
- viability, T/C [14]: 73.9%
- viability, T/C [15]: 68.9%
- viability, T/C [16]: 62.5%
- viability, T/C [17]: 66%
- viability, T/C [18]: 39.3%
- viability, T/C [19]: 67.8%
- viability, T/C [20]: 58.5%
- viability, T/C [21]: 58.4%
- viability, T/C [22]: 55.7%
- viability, T/C [23]: 50.6%
- viability, T/C [24]: 26.9%
- viability, T/C [25]: 56.2%
- viability, T/C [26]: 59.4%
- viability, T/C [27]: 51.9%
- viability, T/C [28]: 52%
- viability, T/C [29]: 45.7%
- viability, T/C [30]: 25.9%
- viability, T/C [31]: 56%
- viability, T/C [32]: 57%
- viability, T/C [33]: 52.3%
- viability, T/C [34]: 50.2%
- viability, T/C [35]: 44.1%
- viability, T/C [36]: 27.2%

- IC50 (second compound 0.0316 µM): 4460 nM
- IC50 (second compound 0.1 µM): 2150 nM
- IC50 (second compound 0.316 µM): 983 nM
- IC50 (second compound 1 µM): 173 nM
- IC50 (second compound 3.16 µM): < 31.6 nM
- IC50 (second compound 10 µM): 66.9 nM
Structure (SMILES): COc1cccc2c1C(=O)c1c(O)c3c(c(O)c1C2=O)CC(O)(C(=O)CO)CC3OC1CC(N)C(O)C(C)O1 (centres undefined) + CNC(=O)c1ccc(Nc2nc(OC3CCCC3)c3c(-c4ccc5nc(C)oc5c4)c[nH]c3n2)c(OC)c1
- viability, T/C [1]: 119%
- viability, T/C [2]: 98.7%
- viability, T/C [3]: 87.5%
- viability, T/C [4]: 68.8%
- viability, T/C [5]: 59.9%
- viability, T/C [6]: 36%
- viability, T/C [7]: 104%
- viability, T/C [8]: 110%
- viability, T/C [9]: 79.7%
- viability, T/C [10]: 59.9%
- viability, T/C [11]: 50%
- viability, T/C [12]: 28.7%
- viability, T/C [13]: 75.3%
- viability, T/C [14]: 73.4%
- viability, T/C [15]: 63.1%
- viability, T/C [16]: 51%
- viability, T/C [17]: 31%
- viability, T/C [18]: 18.5%
- viability, T/C [19]: 64.8%
- viability, T/C [20]: 56.6%
- viability, T/C [21]: 42.2%
- viability, T/C [22]: 28.1%
- viability, T/C [23]: 14.3%
- viability, T/C [24]: 10.3%
- viability, T/C [25]: 49.3%
- viability, T/C [26]: 48.2%
- viability, T/C [27]: 38.5%
- viability, T/C [28]: 19.5%
- viability, T/C [29]: 10.3%
- viability, T/C [30]: 7.76%
- viability, T/C [31]: 53.1%
- viability, T/C [32]: 47.6%
- viability, T/C [33]: 36.6%
- viability, T/C [34]: 18.1%
- viability, T/C [35]: 8.69%
- viability, T/C [36]: 7.86%
